In patent publication US6552080B1, “Fungicidal compounds having a fluorovinyl-or fluoropropenyl-oxyphenyloxime moiety and process for the preparation thereof” (Korea Research Institute of Chemical Technology, priority 1999, dated 2003):
Like-named read-outs stand apart in the source and are kept apart here.

What was measured:
[1] = system: Erysiphae graminis; test: Fungicidal activity against Barley Powdery Mildew (BPM) disease; format: in vivo; conditions: Barley Powdery Mildew
[2] = system: Pyricularia oryzae Carvara KA301; format: in vivo; conditions: Rice Blast
[3] = system: Botrytis cinerae; test: Fungicidal activity against Cucumber Gray Mold Rot (CGM) disease; format: in vivo; conditions: Cucumber Gray Mold Rot; concentration 50 ppm
[4] = system: Rhizoctonia solani AG-1; test: Fungicidal activity against Rice Sheath Blight (RSB) disease; conditions: Rice Sheath Blight
[5] = system: Phytophthora infestans; format: in vivo; conditions: Tomato Late Blight
[6] = system: Puccinia recondita; test: Fungicidal activity against Wheat Leaf Rust (WLR) disease; format: in vivo; conditions: Wheat Leaf Rust

CNC(=O)C(=COC)c1ccccc1CON=C(C)c1cccc(OC(F)=Cc2cccc(Cl)c2)c1 [Compound 62]
BPM (Fungicidal Activities, C.V.) ([1]; concentration 2 ppm): 0% | BPM (Fungicidal Activities, C.V.) ([1]; concentration 50 ppm): 100% | RCV (Fungicidal Activities, C.V.) ([2]; concentration 2 ppm): 92% | RCV (Fungicidal Activities, C.V.) ([2]; concentration 50 ppm): 96% | CGM (Fungicidal Activities, C.V.) [3]: 25% | RSB (Fungicidal Activities, C.V.) ([4]; concentration 50 ppm): 0% | TLB (Fungicidal Activities, C.V.) ([5]; concentration 50 ppm): 0% | WLR (Fungicidal Activities, C.V.) ([6]; concentration 2 ppm): 83% | WLR (Fungicidal Activities, C.V.) ([6]; concentration 50 ppm): 99%

CO/C=C(/C(=O)OC)c1ccccc1CON=Cc1cccc(OC(F)=Cc2ccccc2)c1 [Compound 1]
BPM (Fungicidal Activities, C.V.) ([1]; concentration 2 ppm): 99% | BPM (Fungicidal Activities, C.V.) ([1]; concentration 10 ppm): 100% | BPM (Fungicidal Activities, C.V.) ([1]; concentration 50 ppm): 100% | RCV (Fungicidal Activities, C.V.) ([2]; concentration 2 ppm): 71% | RCV (Fungicidal Activities, C.V.) ([2]; concentration 10 ppm): 86% | RCV (Fungicidal Activities, C.V.) ([2]; concentration 50 ppm): 100% | CGM (Fungicidal Activities, C.V.) [3]: 69% | RSB (Fungicidal Activities, C.V.) ([4]; concentration 50 ppm): 65% | TLB (Fungicidal Activities, C.V.) ([5]; concentration 50 ppm): 12% | WLR (Fungicidal Activities, C.V.) ([6]; concentration 2 ppm): 96% | WLR (Fungicidal Activities, C.V.) ([6]; concentration 10 ppm): 100% | WLR (Fungicidal Activities, C.V.) ([6]; concentration 50 ppm): 100%

CNC(=O)C(=NOC)c1ccccc1CON=Cc1cccc(OC(F)=Cc2cccc(C)c2)c1 [Compound 31]
BPM (Fungicidal Activities, C.V.) ([1]; concentration 2 ppm): 8% | BPM (Fungicidal Activities, C.V.) ([1]; concentration 50 ppm): 100% | RCV (Fungicidal Activities, C.V.) ([2]; concentration 2 ppm): 97% | RCV (Fungicidal Activities, C.V.) ([2]; concentration 50 ppm): 100% | CGM (Fungicidal Activities, C.V.) [3]: 25% | RSB (Fungicidal Activities, C.V.) ([4]; concentration 50 ppm): 52% | TLB (Fungicidal Activities, C.V.) ([5]; concentration 50 ppm): 8% | WLR (Fungicidal Activities, C.V.) ([6]; concentration 2 ppm): 83% | WLR (Fungicidal Activities, C.V.) ([6]; concentration 50 ppm): 100%

CCc1ccc(C=C(F)Oc2cccc(C(C)=NOCc3ccccc3C(=NOC)C(=O)OC)c2)cc1 [Compound 69]
BPM (Fungicidal Activities, C.V.) ([1]; concentration 2 ppm): 99% | BPM (Fungicidal Activities, C.V.) ([1]; concentration 50 ppm): 100% | RCV (Fungicidal Activities, C.V.) ([2]; concentration 2 ppm): 100% | RCV (Fungicidal Activities, C.V.) ([2]; concentration 50 ppm): 100% | CGM (Fungicidal Activities, C.V.) [3]: 25% | RSB (Fungicidal Activities, C.V.) ([4]; concentration 2 ppm): 30% | RSB (Fungicidal Activities, C.V.) ([4]; concentration 50 ppm): 100% | TLB (Fungicidal Activities, C.V.) ([5]; concentration 2 ppm): 25% | TLB (Fungicidal Activities, C.V.) ([5]; concentration 50 ppm): 60% | WLR (Fungicidal Activities, C.V.) ([6]; concentration 2 ppm): 97% | WLR (Fungicidal Activities, C.V.) ([6]; concentration 50 ppm): 100%
